Assays:
[1] = test system: Trypanosoma brucei brucei; experiment: GSK_TCAKS: pIC50 Trypanosoma brucei viability assay using luminiscence. Assay plates (1536-well) were prepared. T. brucei cultures were harvested and counted in a CASY cell counter. A parasite suspension was prepared at a final concentration of 5 * 10^4 cells/mL in complete HMI9 medium and 6uL was dispensed to all wells containing compounds using a Multidrop Combi dispenser. 6uL of HMI9 media with 0.4% DMSO were dispensed to control columns. Plates were incubated for 24 h at 37C, 5% CO2 then tempered for 10 min at room temperature. ATP content was quantified by adding 4 uL of CellTiter-Glo Reagent (Promega) according to the manufacturer's instructions. Luminescence was measured using a ViewLux.; assay type: functional, organism-based; settings: Lister 427, CASY
Trypanosoma cruzi [2] = experiment: (§1) GSK_TCAKS: pIC50 H2C9 Imaging: H9c2 Host Cardiomyocytes. […] Cells were then washed once with PBS before infection. T. cruzi trypomastigotes, collected at days 5 to 8 after infection from LLC-MK2 parasite infected cultures, were allowed to swim out for 4h at 37C from a centrifuged pellet (2,500 rpm/10 min/room temperature). Trypomastigotes were then collected and counted in a CASY Cell Counter. Trypomastigotes, in supplemented DMEM, were added to H9c2 cultures in a multiplicity of infection of 1 and incubated for 18 h. Cells were washed once with PBS before incubation of the infected H9c2 monolayer with trypsin (Life-Technologies) to detach cells from the flask. Cells were counted in a CASY Cell Counter using a 150 um capillary and their density set at 5 * 10^4 cells per mL in supplemented assay DMEM. Infected H9c2 were dispensed into 384-well poly-lysine coated assay plates at 50uL per well using a Multidrop Combi dispenser. After seeding them, the plates were incubated at 37C, 5% CO2 for 72h. Cultures were then fixed and stained by addition of 50 uL of a solution containing 8% formaldehyde and 4 uM DRAQ5 DNA dye (BioStatus, UK) per well. […] Five images were collected per well for reliable statistical analysis. Automated image analysis was performed with a script developed on Acapella High Content Imaging and Analysis Software (PerkinElmer). Output: Number of H9c2 Host Cardiomyocytes nuclei to determine drug-related cytotoxicity.; assay type: functional, organism-based, Rattus norvegicus; settings: H9c2, 4 h
[3] = GSK_TCAKS: pIC50 HepG2 human cell line viability assay using luminiscence. […] Seeding density was checked to ensure that new mono-layers were not more than 50% confluent at the time of harvesting. Cell suspension was added to 500 mL of the same medium at a final density of 1.2 * 10^5 cells/mL. This cell suspension was dispensed (25 uL, 3000 cells per well) into 384-well clear-bottom plates using a Multidrop Combi dispenser. Prior to addition of the cell suspension, the screening compounds (250 nL) were pre-dispensed into the plates with an Echo liquid handler. Plates were incubated for 48 h at 37C, 5% CO2. After incubation, plates equilibrated at room temperature for 30 min before proceeding to develop the luminescent signal. The signal developer, CellTiter-Glo Reagent, was allowed to equilibrate at room temperature for 30 min and added to the plates (25uL per well) using a Multidrop Combi dispenser. Plates were left for 10 min at room temperature for stabilization and then read using a ViewLux.; assay type: toxicity, cell-based
Trypanosoma cruzi [4] = experiment: as §1, with “Trypanosoma cruzi” for “H2C9”, “Amastigotes/Cell.” for “H9c2 Host Cardiomyocytes.”, “number” for “Number”, “amastigotes per cell as infection level measurement.” for “H9c2 Host Cardiomyocytes nuclei to determine drug-related cytotoxicity.”; assay type: functional, organism-based, Rattus norvegicus; settings: H9c2, 4 h
Leishmania donovani [5] = experiment: (§2) GSK_TCAKS: pIC50 Leishmania donovani Imaging: THP-1 Host Macrophages. Assay plates (384-well) were prepared by adding 250nL of compound to each well. For single shot assay, the final compound concentration was 5 uM. […] Automated image analysis was performed with a script developed on Acapella High Content Imaging and Analysis Software (PerkinElmer). Output: THP-1 cell count were reported for each well.; assay type: functional, organism-based, Homo sapiens
[6] = molecular target: Sterol 14-alpha demethylase (Trypanosoma cruzi (strain CL Brener), UniProt Q7Z1V1); experiment: GSK_TCAKS: pIC50 CYP51 from Trypanosoma cruzi.; assay type: functional
Sequence of Sterol 14-alpha demethylase (Q7Z1V1 whole entry): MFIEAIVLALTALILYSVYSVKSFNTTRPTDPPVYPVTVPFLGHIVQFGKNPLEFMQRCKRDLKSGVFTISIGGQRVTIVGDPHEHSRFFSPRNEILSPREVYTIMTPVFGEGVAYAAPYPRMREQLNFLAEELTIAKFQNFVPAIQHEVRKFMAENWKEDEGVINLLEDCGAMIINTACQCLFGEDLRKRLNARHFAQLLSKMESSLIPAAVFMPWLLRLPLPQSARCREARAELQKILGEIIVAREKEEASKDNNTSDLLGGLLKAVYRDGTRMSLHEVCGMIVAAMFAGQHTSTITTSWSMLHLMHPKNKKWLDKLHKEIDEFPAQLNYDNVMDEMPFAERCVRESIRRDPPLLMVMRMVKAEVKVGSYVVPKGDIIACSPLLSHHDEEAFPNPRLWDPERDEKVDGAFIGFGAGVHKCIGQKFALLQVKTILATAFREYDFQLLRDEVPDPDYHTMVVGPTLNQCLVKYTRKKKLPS

NIH3T3 = experiment: GSK_TCAKS: pIC50 NIH 3T3 cell line viability assay using luminiscence. Tissue culture surface treated assay plates (1536-well) were used. […] The 100% cells survival control was determined exposing the host-cells to a 0.5% DMSO concentration, whereas the 100% toxicity control was achieved by seeding the cells in presence of Amphotericin B at 50uM. Plates were incubated for four days at 37C, 5% CO2. The assay readout was developed by addition of 5uL of CellTiter-Glo Reagent following the manufacturer's instructions. Luminiscence was measured using a ViewLux.; assay type: functional, cell-based; settings: Mus musculus, NIH3T3, 96 h
[7] = test system: Trypanosoma brucei brucei; experiment: GSK_TCAKS: pIC50 Trypanosoma brucei viability assay using fluorescence intensity. Assay plates (1536-well) were prepared by dispensing 25nL of compound solution per well using an Echo acoustic dispenser (Labcyte).; assay type: functional, organism-based; settings: Lister 427, 2 h
Trypanosoma cruzi [8] = experiment: GSK_TCAKS: pIC50 Trypanosoma cruzi viability assay using beta-GAL activity. This assay was run at single shot at 5uM compound concentration per well. The biological reagents consisted of NIH-3T3 host cells and trypomastigotes parasitic cells; both cell types were set to a 3.3 * 10^5 cells/mL dilution in assay DMEM by means of a CASY cell counter device using a 60um capillary. 6 uL of the mixture were dispensed per well (about 1 * 10^3 host-cells and 1 * 10^3 parasites) with a Multidrop Combi dispenser. […] In all wells, the percentage of DMSO never exceeded 0.5%. Plates incubated for four days at 37C, 5% CO2. The substrate used for the assay fluorescence intensity (FLINT) readout was resorufin-beta-D-galactopiranoside (Sigma-Aldrich) at 5uM per well. It was diluted in PBS supplemented with the soft detergent Igepal (Fluka).; assay type: functional, organism-based, Mus musculus; settings: Tulahuen, NIH3T3
Trypanosoma cruzi [9] = experiment: as §1, with “Trypanosoma cruzi” for “H2C9”, “Infected Cells.” for “H9c2 Host Cardiomyocytes.”, “percentage” for “Number”, “infected cells per well as a second infection marker.” for “H9c2 Host Cardiomyocytes nuclei to determine drug-related cytotoxicity.”; assay type: functional, organism-based, Rattus norvegicus; settings: H9c2, 4 h
Leishmania donovani [10] = experiment: as §2, with “Infected” for “THP-1 Host”, “Percent of infected macrophage cells” for “THP-1 cell count”; assay type: functional, organism-based, Homo sapiens; settings: THP-1
Leishmania donovani [11] = experiment: GSK_TCAKS: pIC50 Leishmania donovani viability assay using fluorescence intensity. Assay plates (1536-well) were prepared by adding 30nL per well of compound. For single shot assay, the final compound concentration was 5uM. […] Briefly, eGFP LdBOB axenic amastigotes were harvested, fixed and counted in a CASY cell counter (Roche-Applied Science). A final concentration of 1.5 * 10^5 cells per well were prepared in amastigote media containing 500 U/mL penicillin/streptomycin (Invitrogen) and 6uL was dispensed to each experimental well using a Multidrop Combi dispenser (Thermo Scientific). 6uL of assay media was dispensed to control columns used as reference for 100% compound response. Following incubation for 72 h at 37C, 5% CO2, 2 uL of resazurin was added to each well at a final concentration of 0.5 mM in phosphate buffered saline (PBS) with IGEPAL (Sigma-Aldrich), 0.05% (v/v).; assay type: functional, organism-based
Leishmania donovani [12] = experiment: as §2, with “Amastigotes/Macrophages.” for “THP-1 Host Macrophages.”, “Average number of amastigotes per macrophage” for “THP-1”, “cell” for “cell count”; assay type: functional, organism-based, Homo sapiens; settings: THP-1

Structure (SMILES) | IC50 [1] [µM] | IC50 (Trypanosoma cruzi [2]) [µM] | IC50 at 48 h [3] [µM] | IC50 (Trypanosoma cruzi [4]) [µM] | IC50 (Leishmania donovani [5]) [µM] | IC50 [6] [µM] | IC50 (NIH3T3) [µM] | IC50 [7] [µM] | IC50 (Trypanosoma cruzi [8]) [µM] | IC50 (Trypanosoma cruzi [9]) [µM] | IC50 (Leishmania donovani [10]) [µM] | IC50 (Leishmania donovani [11]) [µM] | IC50 (Leishmania donovani [12]) [µM]
O=C(c1cccc(Cl)c1Cl)N1CCn2c1nc(-c1ccncc1)cc2=O | 31.6 | > 50.1 | > 100 | 0.316 | > 50.1 | 0.0631 | 20 | 15.8 | 0.178 | 0.316 | > 50.1 | 50.1 | 31.6
CS(=O)(=O)c1cccc(-c2cnc(N)c3c(-c4ccc(CO)cc4)csc23)c1 | 5.01 | > 50.1 | > 100 | 0.316 | > 50.1 | 3.16 | 25.1 | 2 | 0.794 | 0.631 | 10 | 39.8 | 7.94
O=C(NCCc1ccccn1)C(c1cn[nH]c1)N1CCN(c2ccc(Cl)c(Cl)c2)CC1 (centres undefined) | > 39.8 | > 50.1 | > 100 | 0.126 | > 50.1 | 0.126 | 31.6 | 12.6 | 0.1 | 0.158 | > 50.1 | 2.51 | 20
COc1ccc(-c2ccc3nnc(-c4ccc(O)c(OC)c4)n3c2)cn1 | 2.51 | > 50.1 | > 100 | 2 | > 50.1 | > 100 | 50.1 | 2 | 1.26 | 3.16 | > 50.1 | 3.98 | > 50.1
COc1cc(-c2nc(N3CCOCC3)sc2-c2ccnc(NC3CCOCC3)n2)ccc1Cl | > 39.8 | > 50.1 | > 100 | 0.1 | > 50.1 | > 100 | > 50.1 | 15.8 | 0.251 | 0.158 | > 50.1 | > 50.1 | 0.02
CN(C)c1ncc(-c2cncn2CCOc2ccc(Cl)cc2)cn1 | > 39.8 | > 50.1 | > 100 | 0.2 | > 50.1 | 0.0501 | 39.8 | > 39.8 | 0.224 | 0.251 | > 50.1 | > 50.1 | > 50.1
CCC(c1ccc(F)cc1)n1cncc1-c1cnn(C)c1 (centres undefined) | > 39.8 | > 50.1 | > 100 | 0.316 | > 50.1 | 0.0794 | 25.1 | > 39.8 | 0.2 | 0.316 | > 50.1 | > 50.1 | > 50.1
O=C(Nc1ncc([N+](=O)[O-])s1)C1CC1 | 39.8 | > 50.1 | > 100 | 0.398 | > 50.1 | > 100 | 31.6 | 7.94 | 0.398 | 1 | > 50.1 | 39.8 | > 50.1

Source: ChEMBL document CHEMBL3430912, “GSK Tres Cantos Anti-Kinetoplastid Screening (TCAKS) Data”
